We go through one molecule from paper PMC5917010, “Structural basis for GPR40 allosteric agonism and incretin stimulation” (Nature Communications, 2018).

One test addresses hERalpha (Homo sapiens, UniProt P03372). The experiment in a line: hERalpha binding.
The target of another test is GPR40 L112F (Homo sapiens, UniProt O14842, L112F). The experiment in a line: cAMP accumulation assay, L112F mutant. Background: Cyclic AMP is a second messenger, typically raised through Gs and lowered through Gi signalling.
Chain of GPR40 L112F (O14842 whole entry L112F): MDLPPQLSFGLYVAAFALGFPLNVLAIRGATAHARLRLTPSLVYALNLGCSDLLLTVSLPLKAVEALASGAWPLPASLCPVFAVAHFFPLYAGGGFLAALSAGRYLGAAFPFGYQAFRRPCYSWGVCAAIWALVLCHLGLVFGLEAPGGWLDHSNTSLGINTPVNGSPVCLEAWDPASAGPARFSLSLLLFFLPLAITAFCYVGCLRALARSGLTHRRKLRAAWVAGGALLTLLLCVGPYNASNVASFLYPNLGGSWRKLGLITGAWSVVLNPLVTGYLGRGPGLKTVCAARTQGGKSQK
A further test deals with hRORgamma (Homo sapiens, UniProt P51449). The experiment in a line: hRORgamma binding.
Chain of hRORgamma (P51449 whole entry): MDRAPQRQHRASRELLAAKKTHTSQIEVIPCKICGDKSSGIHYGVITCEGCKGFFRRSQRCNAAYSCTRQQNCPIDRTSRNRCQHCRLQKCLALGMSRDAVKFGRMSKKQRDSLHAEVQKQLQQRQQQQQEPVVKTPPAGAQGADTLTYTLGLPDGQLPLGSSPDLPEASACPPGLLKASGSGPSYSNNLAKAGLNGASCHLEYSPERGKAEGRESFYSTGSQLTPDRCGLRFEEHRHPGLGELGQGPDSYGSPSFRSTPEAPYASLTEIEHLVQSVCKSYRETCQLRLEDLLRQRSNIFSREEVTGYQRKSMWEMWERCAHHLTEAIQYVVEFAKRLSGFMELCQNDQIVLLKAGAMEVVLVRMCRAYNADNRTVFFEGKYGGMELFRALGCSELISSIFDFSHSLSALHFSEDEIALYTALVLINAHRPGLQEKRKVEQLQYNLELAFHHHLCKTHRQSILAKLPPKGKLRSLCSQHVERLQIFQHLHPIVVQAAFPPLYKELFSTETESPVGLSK
The next test concerns the target T1, human GPR40 (A1 site) (Homo sapiens, UniProt O14842).
T1 construct: full length recombinant human GPR40 (GPR40) cDNA; expressed in transfected cells; host or cells: HEK 293, stably transfected; crude cell surface membranes
Nature of the test: A1 site radioligand binding with [3H]-TAK-875. The protocol: Crude cell surface membranes were prepared from human embryonic kidney 293 (HEK 293) cells stably transfected (for the wild type) or transiently transfected (for the mutants and corresponding wild type) with full length recombinant human GPR40 (GPR40) cDNA, using differential centrifugation methods.
A1 Site Binding. 10 µL of compound diluted in 100% DMSO and 90 µL of Assay Buffer (50 mM Tris-HCl, pH 7.5, 5 mM CaCl2, 5 mM MgCl2, 0.1% w/v fatty acid-free BSA) were added to a deep 96-well polypropylene assay plate (Beckman Coulter).
Assays were terminated by filtration through GF/C glass fiber filtermats (Perkin Elmer) presoaked in 50 mM Tris–HCl, pH 7.5, using a Mach III cell harvester (TomTec). Filtermats were washed two times with 5 mL of ice-cold 50 mM Tris–HCl, pH 7.5 buffer, dried 1 h in a convection oven at 60 °C and embedded with Meltilex A solid scintillant (Perkin Elmer). Radioactivity was determined as counts per min (cpm) using a Trilux Microbeta plate scintillation counter (Perkin Elmer).

T1 sequence (O14842 whole entry): as the sequence (O14842 whole entry L112F) above, with F112L counted along it
Chain of hERalpha (P03372 whole entry): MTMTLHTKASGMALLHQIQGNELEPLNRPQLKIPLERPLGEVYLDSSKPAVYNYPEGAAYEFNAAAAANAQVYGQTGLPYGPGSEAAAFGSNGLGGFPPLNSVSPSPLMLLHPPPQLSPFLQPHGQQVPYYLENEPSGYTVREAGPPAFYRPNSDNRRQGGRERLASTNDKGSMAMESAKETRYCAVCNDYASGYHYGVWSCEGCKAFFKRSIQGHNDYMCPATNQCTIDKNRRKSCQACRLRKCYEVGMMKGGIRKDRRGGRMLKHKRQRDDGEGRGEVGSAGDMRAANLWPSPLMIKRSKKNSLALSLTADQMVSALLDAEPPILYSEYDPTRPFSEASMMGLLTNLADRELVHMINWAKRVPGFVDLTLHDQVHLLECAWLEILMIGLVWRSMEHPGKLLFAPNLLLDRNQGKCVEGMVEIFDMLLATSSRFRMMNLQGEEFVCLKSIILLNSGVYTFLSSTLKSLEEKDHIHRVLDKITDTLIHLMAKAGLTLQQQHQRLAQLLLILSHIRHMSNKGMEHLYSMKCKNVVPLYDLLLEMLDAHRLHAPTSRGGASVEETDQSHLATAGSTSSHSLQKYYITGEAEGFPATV

Take `COc1ccc(C(=O)N(CC(C)(C)C)c2cccc(C)n2)c(N2CCC(c3cc4ccc([C@@H](CC(=O)O)C5CC5)cc4o3)CC2)c1` [compound 1]: the inhibition constant (Ki) at hERalpha was more than 11 µM; at hRORgamma, more than 20 µM; on human GPR40 (A1 site) (Supplementary Table 1) it was more than 5.59 µM. The molecule further registered an EC50 on GPR40 L112F of 0.06 µM. At GPR40 L112F (cAMP accumulation, 240 min), the “improvement in EC50 in L112F mutant over wild type” value stood at 3 fold. Also, the “effect on [3H]-TAK-875 binding” value on human GPR40 (A1 site) (addition of unlabeled compound, membranes from stably transfected cells) is reported as “enhanced binding activity”. For the same molecule, the “affinity modulation factor (α)” value at human GPR40 (A1 site) (allosteric modulator titration equation, [3H]-TAK-875 binding, Fig. 1a) came out at 2.4.

In general, Ki refers to the equilibrium dissociation constant of an inhibitor or competing ligand from its target. The low end stands for higher affinity, the high end for lower affinity. As usually defined, the EC50 is the concentration giving half of the maximal effect. A lower EC50 goes with greater potency.
